In patent publication US8927570B2, “1-naphthyl-or 1-dihydroacenaphthenyl-pyrido[B]indoles and uses thereof in treating cancers” (priority 2009, dated 2015):

Columns and labels:
[1] = test system: HCT116 colon cancer cells; test: In vitro antiproliferative activity, HCT116 colon cancer cells; assay type: cell-based; settings: Homo sapiens, HCT-116, Table 1
Procedure: (§1) Substituted β-carboline compounds 4 to 38 were tested for antiproliferative activity against HCT116 colon cancer cells and HPAC, Mia-PaCa2 and Panc-1 pancreatic cancer cell lines. Table 1 lists the IC50 values for the substituted β-carbolines.

[2] = test system: HPAC pancreatic cancer cell line; test: In vitro antiproliferative activity, HPAC pancreatic cancer cell line; assay type: cell-based; settings: Homo sapiens
Procedure: as §1
(§2) Substituted β-carbolines and analog compounds 39 to 57 were tested for antiproliferative activity against HPAC, Mia-PaCa2 and Panc-1 pancreatic cancer cell lines and MCF-7 and MDA-MB-468 breast cancer cell lines. Table 2 lists the IC50 values for the substituted β-carbolines and analogs thereof.

[3] = test system: Mia-PaCa2 pancreatic cancer cell line; test: In vitro antiproliferative activity, Mia-PaCa2 pancreatic cancer cell line; assay type: cell-based; settings: Homo sapiens
Procedure: as §1, §2

[4] = test system: Panc-1 pancreatic cancer cell line; test: In vitro antiproliferative activity, Panc-1 pancreatic cancer cell line; assay type: cell-based, human; settings: Homo sapiens
Procedure: as §2

[5] = test system: MCF-7 breast cancer cell line; test: In vitro antiproliferative activity, MCF-7 breast cancer cell line; assay type: cell-based, human; settings: Homo sapiens, MCF7, Table 2
Procedure: as §2

[6] = test system: MDA-MB-468 breast cancer cell line; test: In vitro antiproliferative activity, MDA-MB-468 breast cancer cell line; assay type: cell-based, human; settings: Homo sapiens, Table 2
Procedure: as §2

| SMILES | IC50 [1] [µM] | IC50 ([2]; Table 1) [µM] | IC50 ([3]; MIA PaCa-2, Table 1) [µM] | IC50 ([4]; Table 1) [µM] | IC50 ([2]; Table 2) [µM] | IC50 ([3]; MIA PaCa-2, Table 2) [µM] | IC50 ([4]; Table 2) [µM] | IC50 [5] [µM] | IC50 [6] [µM] |
| --- | --- | --- | --- | --- | --- | --- | --- | --- | --- |
| COc1ccc2[nH]c3c(-c4cccc5nccnc45)nccc3c2c1 [Compound 13, 6-Methoxy-1-quinoxalin-5-yl-9H-β-carboline] | 26.1 | > 50 | > 50 | > 50 |  |  |  |  |  |
| FC(F)(F)Oc1ccc2[nH]c3c(-c4cccc5ccccc45)nccc3c2c1 [Compound 52, 1-(Naphthalen-1-yl)-6-(trifluoromethoxy)-9H-pyrido[3,4-b]indole] |  |  |  |  | 35.5 | 8.63 | > 50 | 7.61 | 4.99 |
| COc1ccc2[nH]c3c(-c4cnc5ccccc5c4)nccc3c2c1 [Compound 17, 6-Methoxy-1-quinolin-3-yl-9H-β-carboline] | 14.1 | 21.9 | 17 | 29 |  |  |  |  |  |
| N#Cc1ccc2[nH]c3c(-c4cccc5ccccc45)nccc3c2c1 [Compound 53, 1-(Naphthalen-1-yl)-9H-pyrido[3,4-b]indole-6-carbonitrile] |  |  |  |  | 50 | 40.4 | > 50 | > 50 | 30.2 |
| COc1ccc2[nH]c3c(-c4cccc5ncccc45)nccc3c2c1 [Compound 21, 6-Methoxy-1-quinolin-5-yl-9H-β-carboline] | 0.9 | 5.83 | 2.58 | 7.52 |  |  |  |  |  |
| COc1ccc2[nH]c3c(-c4cccc5c(F)cccc45)nccc3c2c1 [Compound 44, 1-(5-fluoronaphthalen-1-yl)-6-methoxy-9H-pyrido[3,4-b]indole] |  |  |  |  | 2.37 | 0.33 | 2.56 | 6.6 | 1.2 |
| COc1ccc2[nH]c3c(-c4ccc(-c5ccccn5)cc4)nccc3c2c1 [Compound 38, 6-Methoxy-1-(4-pyridin-2-yl-phenyl)-9H-β-carboline] | 3 | 17 | 48.4 | 47.4 |  |  |  |  |  |
| COc1ccc2c(c1)[nH]c1c(-c3cccc4nccnc34)nccc12 [Compound 14, 7-Methoxy-1-quinoxalin-5-yl-9H-β-carboline] | 49.6 | > 50 | > 50 | > 50 |  |  |  |  |  |
| Oc1ccc2[nH]c3c(-c4cccc5ccccc45)nccc3c2c1 [Compound 40, 1-(naphthalen-1-yl)-9H-pyrido[3,4-b]indol-6-ol] |  |  |  |  |  |  |  | 34 | 10.3 |
| COc1ccc2c(c1)[nH]c1c(-c3cncc4ccccc34)nccc12 [Compound 16, 1-Isoquinolin-4-yl-7-methoxy-9H-β-carboline] | 33.5 | 44.9 | 36.7 | > 50 |  |  |  |  |  |
| c1ccc(COc2ccc3[nH]c4c(-c5cccc6ccccc56)nccc4c3c2)cc1 [Compound 36, 6-Benzyloxy-1-naphthalen-1-yl-9H-β-carboline] |  | 0.83 | 0.51 | 0.57 |  |  |  |  |  |
| COc1ccc2c(c1)[nH]c1c(-c3ccccc3)nccc12 [Compound 32, 7-Methoxy-1-phenyl-9H-β-carboline] | 31.4 | 34.3 | 34.3 | > 50 |  |  |  |  |  |
| COc1ccc2[nH]c3c(-c4c5ccccc5cc5ccccc45)nccc3c2c1 [Compound 27, 1-Anthracen-9-yl-6-methoxy-9H-β-carboline] | 2.1 | 6.08 | 2.43 | 10.5 |  |  |  |  |  |
| COc1ccc2[nH]c3c(-c4cccc5ccccc45)ncc(-c4ccccc4)c3c2c1 [Compound 41, 6-methoxy-1-(naphthalen-1-yl)-4-phenyl-9H-pyrido[3,4-b]indole] |  |  |  |  | 7.72 | 3.63 | > 10 | > 10 | > 10 |
| COc1ccc2[nH]c3c(-c4cncc5ccccc45)nccc3c2c1 [Compound 15, 1-Isoquinolin-4-yl-6-methoxy-9H-β-carboline] | 5.7 | 7.37 | 4.7 | 10.5 |  |  |  |  |  |
| Cc1ccc2[nH]c3c(-c4cccc5c(Br)cccc45)nccc3c2c1 [Compound 46, 1-(5-bromonaphthalen-1-yl)-6-methyl-9H-pyrido[3,4-b]indole] |  |  |  |  | > 50 | 41.7 | > 50 | > 50 | > 50 |
| COc1ccc2c(c1)[nH]c1c(-c3cccc4cnccc34)nccc12 [Compound 24, 1-Isoquinolin-5-yl-7-methoxy-9H-β-carboline] | 15.1 | 34.4 | 24.1 | > 50 |  |  |  |  |  |
| COc1ccc2c(c1)c1ccnc(-c3cccc4ccccc34)c1n2C [Compound 57, 6-Methoxy-9-methyl-1-(naphthalen-1-yl)-9H-pyrido[3,4-b]indole] |  |  |  |  | 44.2 | 34 | 41.3 | 52 | 17.8 |

| SMILES | IC50 [1] [µM] | IC50 ([2]; Table 1) [µM] | IC50 ([3]; MIA PaCa-2, Table 1) [µM] | IC50 ([4]; Table 1) [µM] | IC50 ([2]; Table 2) [µM] | IC50 ([3]; MIA PaCa-2, Table 2) [µM] | IC50 ([4]; Table 2) [µM] | IC50 [5] [µM] | IC50 [6] [µM] |
| --- | --- | --- | --- | --- | --- | --- | --- | --- | --- |
| Brc1ccc2[nH]c3c(-c4cccc5ccccc45)nccc3c2c1 [Compound 54, 6-Bromo-1-(naphthalen-1-yl)-9H-pyrido[3,4-b]indole] |  |  |  |  | 10.9 | 26.2 | 30.3 | 11.4 | 5.09 |
| COc1ccc2[nH]c3c(-c4cc5ccccc5c5ccccc45)nccc3c2c1 [Compound 29, 6-Methoxy-1-phenanthren-9-yl-9H-β-carboline] | 0.53 | 0.54 | 0.84 | 18 |  |  |  |  |  |
| COc1ccc2[nH]c3c(-c4ccccc4)nccc3c2c1 [Compound 31, 6-Methoxy-1-phenyl-9H-β-carboline] | 33.5 | 44.8 | 37.1 | > 50 |  |  |  |  |  |
| COc1ccc2c(c1)[nH]c1c(-c3c(C)ccc4ccccc34)nccc12 [Compound 34, 7-Methoxy-1-(2-methyl-naphthalen-1-yl)-9H-β-carboline] | 2.43 | 17.6 | 20.7 | 33.3 |  |  |  |  |  |
| COc1ccc2c(c1)[nH]c1c(-c3ccc4ccccc4c3)nccc12 [Compound 26, 7-Methoxy-1-naphthalen-2-yl-9H-β-carboline] | 17.1 | 20.8 | 21.7 | 48 |  |  |  |  |  |
| COc1ccc2c(c1)[nH]c1c(-c3nccc4ccccc34)nccc12 [Compound 12, 1-Isoquinolin-1-yl-7-methoxy-9H-β-carboline] |  | 34.8 | 49.2 | > 50 |  |  |  |  |  |
| COc1ccc2c(-c3nccc4c3[nH]c3ccc(OC)cc34)cccc2c1 [Compound 35, 6-Methoxy-1-(6-methoxy-naphthalen-1-yl)-9H-β-carboline] | 2.22 | 23.1 | 47.2 | > 50 |  |  |  |  |  |
| COc1ccc2[nH]c3c(-c4c(C)ccc5ccccc45)nccc3c2c1 [Compound 33, 6-Methoxy-1-(2-methyl-naphthalen-1-yl)-9H-β-carboline] | 1.8 | 9.38 | 2.23 | 19.8 |  |  |  |  |  |
| COc1ccc2c(c1)[nH]c1c(-c3c4ccccc4cc4ccccc34)nccc12 [Compound 28, 1-Anthracen-9-yl-7-methoxy-9H-β-carboline] | 1.7 | 5.47 | 3.59 | 14.9 |  |  |  |  |  |
| COc1ccc2c(c1)[nH]c1c(-c3cc4ccccc4c4ccccc34)nccc12 [Compound 30, 7-Methoxy-1-phenanthren-9-yl-9H-β-carboline] | 0.87 | 5.67 | 1.57 | > 50 |  |  |  |  |  |
| COc1ccc2c(c1)[nH]c1c(-c3ccoc3)nccc12 [Compound 8, 1-Furan-3-yl-7-methoxy-9H-β-carboline] |  | 45.1 | 38.3 | > 50 |  |  |  |  |  |
| COc1ccc2c(c1)[nH]c1c(-c3cccc4ncccc34)nccc12 [Compound 22, 7-Methoxy-1-quinolin-5-yl-9H-β-carboline] | 12.8 | > 50 | 28.6 | > 50 |  |  |  |  |  |
| COc1ccc2[nH]c3c(-c4ccc5ccccc5c4)nccc3c2c1 [Compound 25, 6-Methoxy-1-naphthalen-2-yl-9H-β-carboline] | 0.67 | 5.57 | 1.36 | 8.4 |  |  |  |  |  |
| COc1ccc2c(c1)[nH]c1c(-c3cnc4ccccc4c3)nccc12 [Compound 18, 7-Methoxy-1-quinolin-3-yl-9H-β-carboline] | 13.1 | 14.5 | 16.7 | 37.2 |  |  |  |  |  |
| COc1ccc2c(c1)[nH]c1c(-c3cccnc3)nccc12 [Compound 5, 1-Pyridin-3-yl-7-methoxy-9H-β-carboline] |  | > 50 | 44.8 | > 50 |  |  |  |  |  |
| COc1ccc2c(c1)[nH]c1c(-c3cccc4ccccc34)nccc12 [Compound 20, 7-Methoxy-1-naphthalen-1-yl-9H-β-carboline] | 3.6 | 25.5 | 6.61 | > 50 |  |  |  |  |  |
| COc1ccc2[nH]c3c(-c4cccc5cnccc45)nccc3c2c1 [Compound 23, 1-Isoquinolin-5-yl-6-methoxy-9H-β-carboline] | 9 | 15.9 | 9.81 | 21.2 |  |  |  |  |  |
| Cc1cccc2c1[nH]c1c(-c3cccc4ccccc34)nccc12 [Compound 37, 8-Methyl-1-naphthalen-1-yl-9H-β-carboline] | 2.6 | 6.39 | 3.54 | > 50 |  |  |  |  |  |
